± gives the expanded uncertainty stated by the source.
Assay: xn = mol fraction of the nth substance listed
Details: 100 kPa, Liquid; for viscosity: Falling or rolling sphere viscometry; for speed of sound: Frequency=3 MHz, Single path-length method; for mass density: Vibrating tube method

CCCCn1cc[n+](C)c1.O=S(=O)([O-])C(F)(F)F [1-butyl-3-methylimidazolium trifluoromethanesulfonate] + CN(C)C=O
Details	mass density, 298.15 K [kg/m3]	mass density, 303.15 K [kg/m3]	mass density, 308.15 K [kg/m3]	speed of sound, 298.15 K [m/s]	speed of sound, 303.15 K [m/s]	speed of sound, 308.15 K [m/s]	viscosity, 298.15 K [mPa·s]	viscosity, 303.15 K [mPa·s]	viscosity, 308.15 K [mPa·s]
x1 = 0.1087	1042.02 ± 2	1037.25 ± 2	1032.47 ± 2	1449.2 ± 2.3	1432.1 ± 2.3	1415.2 ± 2.3	1.8 ± 0.6	1.67 ± 0.6	1.55 ± 0.6
x1 = 0.203	1099.89 ± 2	1095.22 ± 2	1090.53 ± 2	1437.7 ± 2.3	1421.9 ± 2.3	1406 ± 2.3	3.67 ± 0.6	3.23 ± 0.6	2.93 ± 0.6
x1 = 0.2978	1142.86 ± 2.1	1138.3 ± 2.1	1133.72 ± 2.1	1425.7 ± 2.4	1410.9 ± 2.4	1395.9 ± 2.4	5.22 ± 0.6	4.67 ± 0.6	4.2 ± 0.6
x1 = 0.409	1181.65 ± 2.1	1177.22 ± 2.1	1172.78 ± 2.1	1415 ± 2.5	1401.2 ± 2.5	1387.2 ± 2.5	8.68 ± 0.61	7.62 ± 0.6	6.73 ± 0.6
x1 = 0.4969	1206.07 ± 2.1	1201.73 ± 2.1	1197.38 ± 2.1	1409.2 ± 2.5	1396 ± 2.5	1382.9 ± 2.5	13.24 ± 0.81	11.4 ± 0.81	9.92 ± 0.61
x1 = 0.603	1230.69 ± 2.2	1226.44 ± 2.2	1222.2 ± 2.2	1403 ± 2.6	1390.5 ± 2.6	1378.1 ± 2.6	20.91 ± 0.83	17.79 ± 0.82	15.23 ± 0.82
x1 = 0.699	1249.54 ± 2.2	1245.37 ± 2.2	1241.2 ± 2.2	1399.1 ± 2.6	1387 ± 2.6	1375 ± 2.6	32.59 ± 0.88	27.14 ± 0.86	22.89 ± 0.84
x1 = 0.809	1268.59 ± 2.3	1264.5 ± 2.3	1260.4 ± 2.3	1396.7 ± 2.7	1384.8 ± 2.7	1373.3 ± 2.7	52.15 ± 0.93	42.41 ± 0.94	35.16 ± 0.9
x1 = 0.8928	1281.63 ± 2.3	1277.59 ± 2.3	1273.54 ± 2.3	1395 ± 2.8	1383.5 ± 2.8	1372.1 ± 2.8	68.08 ± 1.2	54.9 ± 0.97	44.83 ± 0.96
x1 = 1	1297.46 ± 2.4	1293.46 ± 2.4	1289.47 ± 2.4	1393.2 ± 2.8	1382.8 ± 2.8	1371.7 ± 2.8	82.38 ± 1.7	66.69 ± 1.2	52.86 ± 0.96

From the NIST ThermoML archive (doi:10.1021/acs.jced.8b00176)
